Assay results taken from PMC11212260, “Next-generation neuropeptide Y receptor small-molecule agonists inhibit mosquito-biting behavior” (Parasites & Vectors, 2024).

What was measured:
[1] = target: Ae. aegypti NPYLR7 (Aedes aegypti, UniProt U5N1H5); test: In vitro calcium (GCaMP6s) FLIPR assay in HEK293T cells transfected with NPYLR7; format: cell-based
How it was run: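 HEK293T cells transiently co-transfected with GCaMP6s, mouse Gqα15 and NPYLR7; FLIPR imaging every second for 5 min, compound (0–100 μM) added after 30 s baseline in HBSS + 20 mM HEPES. Response normalized to buffer (0%) and 10 μM FMRFa3 (100%); relative EC50 by four-parameter fit, replicates averaged.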

[2] = system: Aedes aegypti (Orlando strain) females; test: Host-seeking screening assay (miniport olfactometer); format: in vivo; details: fed 1 μM in saline, tested 48 h post-meal; per-compound value of Fig. 3C
How it was run: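 Fasted Orlando-strain females fed saline meals (400 mM NaHCO3) with 1 mM ATP and test compound at 1 μM final via warmed membrane feeders; lethality counted 24 h post-meal. At 48 h, attraction to human-scented stocking plus 5% CO2 scored over 5 min, normalized to matched saline-fed controls.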

[3] = system: Aedes aegypti (Orlando strain) females; test: Glytube feeding: females feeding to repletion and weight per female (meal palatability); format: in vivo; details: Supplemental Figure 1 Panel A; compounds of Fig 3; individual replicate values
Procedure: Groups of 60–150 females were placed in bucket cages with a diameter of 21.6 cm and height of 16.5 cm (VWR) and fasted with access to water for 24 h prior to feeding. Meals were delivered to females via Glytube membrane feeders as described previously. Meals consisted of 1.5 ml sheep blood (HemoStat Laboratories), saline (400 mM NaHCO3 + dih2O), or saline and test compound. Lyophilized compounds were stored at room temperature until use. High-concentration stocks (30 mM in 100% dimethyl sulfoxide [DMSO]) (Sigma-Aldrich) were stored at −20 °C and diluted in saline immediately prior to feeding. Once prepared, meals and glycerol heating elements were warmed in a 42 °C water bath for 15 min to provide warmth to attract mosquitos to feed. ATP (1 mM final concentration) and test compounds (1 μM final concentration) were added prior to placing the meal on top of the mesh on the cage containing female mosquitos. Females were allowed 15–20 min to feed to repletion. Abdominal engorgement was scored by eye and confirmed by weighing females to ensure full feeding (Data S1). […] Females were returned to their original cage with a diH2O wick for 48 h prior to behavioral testing. The lethality of each compound was measured by counting the number of dead females in each cage 24 h post-meal.
Supplementary file 13071_2024_6347_MOESM1_ESM.png: Supplementary Material 1: Figure 1. […] (A) Percent of females feeding to repletion and (B) weight per female after feeding on the indicated meal used for testing in Miniport olfactometer experiments in Figure 3B. (C) Percent of females feeding to repletion and (D) weight per female after feeding on the indicated meal used for testing in live host assays in Figure 4. Data are shown as mean with standard deviation. n = 2–22 replicate cages, 60–150 females/cage. Females were weighed in groups of five to ensure reliable readings. Kruskal–Wallis with Dunn’s multiple comparisons to saline-fed group, ns P > 0.01, * P < 0.01, *** P < 0.0001. (PNG 321 KB)

Chain of Ae. aegypti NPYLR7 (U5N1H5 entry or part of it): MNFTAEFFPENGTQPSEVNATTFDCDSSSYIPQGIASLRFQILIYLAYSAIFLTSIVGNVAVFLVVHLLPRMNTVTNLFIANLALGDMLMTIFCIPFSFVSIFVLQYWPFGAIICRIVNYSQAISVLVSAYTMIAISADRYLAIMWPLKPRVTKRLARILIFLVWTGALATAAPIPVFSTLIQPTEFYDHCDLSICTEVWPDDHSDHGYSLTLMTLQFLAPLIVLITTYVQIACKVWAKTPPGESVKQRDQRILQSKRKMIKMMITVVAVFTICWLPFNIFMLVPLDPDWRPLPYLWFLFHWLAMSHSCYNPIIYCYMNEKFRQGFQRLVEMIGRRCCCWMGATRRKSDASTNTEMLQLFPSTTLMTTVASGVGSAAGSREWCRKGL

With `COc1ccc2nc(N)nc(C)c2c1` [TDI-012610] the “Reported Metric (Summary list)” value ([1]; Figure 1E Summary, first list: low sensitivity or >100 (n = 41)) was “low sensitivity”, the “EC50 (uM)” value ([1]; Figure 1E, EC50 of the single assay date/plate) was “low sensitivity” and the “Reported Metric (EC50)” value ([1]; Figure 1E, metric reported per compound, repeated on every replicate line) was “low sensitivity”. The activation at 3.7037 µM ([1]; HEK-293T, compound 3.7037 uM, single replicate well, read-out: response at 3.7037) was 9.1%, the activation at 11.1111 µM ([1]; HEK-293T, compound 11.1111 uM, single replicate well, read-out: response at 11.1111) was 4.96% and the activation at 33.3333 µM ([1]; HEK-293T, compound 33.3333 uM, single replicate well, read-out: response at 33.3333) was 1.85%. For the same compound, the EC50 ([1]; relative EC50, percent effect relative to 10 μM FMRFa3, read-out: EC50) was > 100 µM, the “in vitro potency (in words)” value ([1]; relative to reference compound TDI-012631) was “loss of potency” and the “Attraction (relative to saline)” value [2] was 0.99. For the same compound, the “% feeding (females feeding to repletion)” value [3] was 89.86%.
